Consider eight compounds from patent US8759010B2, “Host cell kinases as targets for antiviral therapies against HCV infection” (INSERM (Institut National de la Sante et de la Recherche …, priority 2008, dated 2014).

“Also recorded” adds a separate entry of the source. Read-outs that look alike come from different tables or passages of the source.

For series [1], the system named is subgenomic HCV JFH1 replicon. Description: HCV replication, subgenomic JFH1 replicon, Northern blot. It counts as cell-based. The note with it: Huh7.5 cells electroporated with subgenomic JFH1 replicon RNA, 24 h incubation, FIG. 9C. From the text: HEK 293T, Huh7 and Huh7.5.1 cells used in the present study have previously been described (Bartosch, 2003; Barth, 2003; Zhong, 2005). Primary human hepatocytes were isolated and cultured as previously described (David, 1998, which is incorporated herein by reference in its entirety). Subgenomic HCV replicon JFH1-SGR used herein has also previously been described (Kato, 2005).
A 9.7 kb fragment derived from plasmid […] (Wakita, 2005) digested with XbaI and EcoRI was labeled with α^32P-CTP using NEBlot kit (NEB, USA). Northern blotting was performed according to standard protocols (F. M. Ausubel et al., “Current Protocols in Molecular Biology”, John Wiley 1 Sons, Inc., 2007).
Electroporation of RNA derived from plasmids pSGR-JFH1 was performed as previously described (Lan, 2008). Four hours after electroporation, cells were incubated with protein kinase inhibitors in cell culture supernatant for 24 hours. Total RNA was isolate and analyzed by Northern blot analysis of HCV RNA as described (Lohmann, 1999).

The test system of series [2] is HCVcc Luc-Jc1, genotype 2a/2a. Description: microbe, parasite or virus in culture. It counts as cell-based, HCV. The note with it: for IC50: Hepatitis C virus, hepatocytes or hepatocyte-derived cell lines, FIG. 9, read-out: IC50, inhibition of HCV entry and infection.
Series [3] deals with HCVpp JFH1; genotype 2a. Description: HCVpp entry in primary human hepatocytes. The series is classed as cell-based, HCV. As to conditions: JFH1-derived HCVpp; inhibitor added 1 h prior to infection; FIG. 9B.
In series [4] the test system is HCVpp (genotype 1b) bearing envelope glycoproteins from HCV strains VD, VH, VK, VN. Description: Entry of patient-derived HCVpp in primary human hepatocytes. It counts as cell-based. The note with it: 10 μM, 1 h prior to infection, FIG. 10C.
The subject of series [5] is Huh7.5 cells. Description: MTT cell viability, Huh7.5 cells. As to conditions: 10 μM, FIG. 7C. It counts as cell-based, human. The procedure: (§1) Toxicity Assays. Cytotoxicity effects on cells were assessed in triplicates by analyzing the ability to metabolize 3-(4,5-dimethylthiazol-2-yl)-2,5-diphenyltetrazolium bromide (MTT) (Lan, 2008). For siRNA experiments, MTT was added 3 days after transfection with siRNA for 5 hours. The final concentration of MTT was 0.6 mg/mL. Formazan crystals produced by the cells were solubilized and measured as described (Mosmann, 1983). 2. Identification of Cellular Kinases Involved in HCV Entry Using a Genome-Wide RNAi Kinase HCV Entry Screen

Series [6] concerns Huh7.5.1 cells. The experiment in a line: MTT cell viability, Huh7.5.1 cells. It counts as cell-based, human. As to conditions: 10 μM, FIG. 7D. As for the experimental part:
as §1

Series [7] relates to HCVpp H77C, genotype 1a. Description: HCVpp entry in hepatoma cells, luciferase reporter (Example 1). The note with it: Huh7.5.1 cells, 1 μM or 10 μM inhibitor, 1 h prior to 3 h post-infection, FIG. 3. The series is classed as cell-based, HCV. (In general: Reporter assays use an easily measured gene product as a stand-in for the process of interest.)
Series [8] deals with HCVcc JFH1. Description: HCVcc infection of Huh7.5.1 cells, luciferase reporter or RT-PCR of HCV RNA (Example 1). As to conditions: 1 μM or 10 μM inhibitor, dose-dependent, FIG. 3. The series is classed as cell-based. The procedure:
Bicistronic plasmid pFK-Luc-Jc1 (Koutsoudakis, 2006) encodes a luciferase reporter gene and a chimeric HCV genome designated Jc1 which consists of J6CF and JFH1 segments. In vitro HCV RNA synthesis and RNA transfection were carried out as previously described (Wakita, 2005). Culture supernatants from transfected cells were cleared and concentrated as previously described using an Amicon Ultra 15 (Millipore, USA) and used directly or were stored at 4° C. or −80° C. Viruses were titrered by using the limiting dilution assay on Huh7.5.1 cells with a few minor modifications and TCID50 values were calculated based on a method previously described (Lindenbach, 2005).
All inhibitors used in this study were obtained from LC Laboratories (USA). Before use, they were dissolved in DMSO and diluted in Huh7.5.1 cell culture medium (Zhong, 2005). Following incubation, HCVpp entry and HCVcc infection were assessed by luciferase reporter gene expression or RT-PCR of HCV RNA in cells as previously reported (Pestka, 2007; Zeisel, 2007).

For series [9], the system named is HCVpp (genotype 1b) bearing envelope glycoproteins from HCV strains VD, VH, VK, VN. The experiment in a line: Entry of patient-derived HCVpp in Huh7.5 cells. It counts as cell-based. As to conditions: 10 μM, 1 h prior to infection, FIG. 10B.
For series [10] the following is noted: achievable plasma concentrations; Hidalgo and Bloedow, 2003; cited from earlier work.
Series [11] relates to primary human hepatocytes. The experiment in a line: MTT cell viability, primary human hepatocytes. The series is classed as cell-based. As for the experimental part: Toxicity Assays. […] For siRNA experiments, MTT was added 3 days after transfection with siRNA for 5 hours. The final concentration of MTT was 0.6 mg/mL. […] 2.
Series [12] deals with HCVpp. The experiment in a line: HCVpp entry in primary human hepatocytes (Flavopiridol). As to conditions: HCVpp strain not stated.

Usually IC50 stands for the point on the concentration scale where inhibition reaches its midpoint. Take `Cc1nc(Nc2ncc(C(=O)Nc3c(C)cccc3Cl)s2)cc(N2CCN(CCO)CC2)n1` [Dasatinib]: the HCV replication result in series [1] is reported as “did not inhibit”. The IC50 in [2] was determined as 2000 nM. For the same compound, the “HCVpp entry in primary human hepatocytes” value in series [3] is “markedly inhibited”. In addition, the “Entry of patient-derived HCVpp in primary human hepatocytes” value in series [4] is listed as “markedly inhibited”.
With `c1cc(-c2cnn3cc(-c4ccc(OCCN5CCCCC5)cc4)cnc23)ccn1` [Dorsomorphin], the “Cell viability (MTT assay)” value in series [5] was “not diminished”; in series [6] it was “slightly reduced”.
In the case of `C#Cc1cccc(Nc2ncnc3cc(OCCOC)c(OCCOC)cc23)c1` [Erlotinib], the HCVpp entry entry in [7] is on record as “markedly inhibit”. Besides, the HCVcc infection entry in series [8] is on record as “markedly inhibit”; in series [2] (HCVcc Luc-Jc1, inhibitor added 1 h prior to infection, dose-dependent, FIG. 9A) it was “dose-dependently inhibited; also recorded: markedly inhibited”. For the same compound, the HCV replication result in series [1] is listed as “without markedly modulating replication; also recorded: did not inhibit”. Besides, the IC50 in series [2] (Hepatocyte) is around 500 nM. Besides, the “Inhibitory effect on HCVcc infection by detection of viral RNA using RT-PCR” value in series [2] (data not shown) is given as “confirmed”. Further, in [3], the “HCVpp entry in primary human hepatocytes” value is “dose-dependently inhibited”. Further, the “Entry of patient-derived HCVpp in Huh7.5 cells” value (“Entry … in Huh7.5 cells” for short) in [9] is recorded as “markedly inhibited; also recorded: more potent than Dasatinib”. Moreover, in series [4], the “Entry of patient-derived HCVpp in primary human hepatocytes” value is on record as “markedly inhibited”. Moreover, in [10], the mean plasma concentrations is around 4 µM.
As to `CN1CC[C@H](c2c(O)cc(O)c3c(=O)cc(-c4ccccc4Cl)oc23)[C@H](O)C1` [Flavopiridol], the Cytotoxic effects entry in [11] is reported as “absence of any detectable cytotoxic effects”. Besides, the “HCVpp entry in primary human hepatocytes” value in series [12] was “markedly inhibited”.
For the compound `COc1cc2ncnc(Nc3ccc(F)c(Cl)c3)c2cc1OCCCN1CCOCC1` [Gefitinib], in [7], the HCVpp entry entry is on record as “markedly inhibit”. Further, in series [8], the HCVcc infection entry was “markedly inhibit”.
As to `CS(=O)(=O)CCNCc1ccc(-c2ccc3ncnc(Nc4ccc(OCc5cccc(F)c5)c(Cl)c4)c3c2)o1` [Lapatinib], the HCVpp entry result in series [7] is reported as “markedly inhibit”. Further, the HCVcc infection result in series [8] is given as “markedly inhibit”.
Turning to `N#Cc1cnc2cnc(NCc3cccnc3)cc2c1Nc1ccc(F)c(Cl)c1` [TpI2 kinase inhibitor], the “Entry … in Huh7.5 cells” value in series [9] is “did not result in a reproducible inhibition”.
In the case of `COC[C@H]1OC(=O)c2coc3c2[C@@]1(C)C1=C(C3=O)[C@@H]2CCC(=O)[C@@]2(C)C[C@H]1OC(C)=O` [Wortmannin], in [3], the “HCVpp entry in primary human hepatocytes” value is on record as “did not have any effect”. For the same compound, the “Entry … in Huh7.5 cells” value in series [9] is reported as “did not inhibit”.
